Results from ChEMBL document CHEMBL3885881, “DrugMatrix”.

Species on record: Rattus norvegicus
Assay: DrugMatrix - Regimen: Daily Repeat
Type: toxicity, organism-based, Sprague-Dawley
Parameters: regimen Daily Repeat, gender Male, age 6-8 weeks
Conditions: in vivo, iv, vehicle 100 % SALINE; for ABSOLUTE BASOPHIL / ABSOLUTE EOSINOPHIL / ABSOLUTE LYMPHOCYTE / ABSOLUTE MONOCYTE / ABSOLUTE SEGMENTED NEUTROPHIL / BASOPHIL / EOSINOPHIL / ERYTHROCYTE COUNT / HEMATOCRIT / HEMOGLOBIN / LEUKOCYTE COUNT / LYMPHOCYTE / MEAN CORPUSCULAR HEMOGLOBIN / MEAN CORPUSCULAR HEMOGLOBIN CONCENTRATION / MEAN CORPUSCULAR VOLUME / MONOCYTE / NUCLEATED RED BLOOD CELLS / PLATELET COUNT: tissue Blood; for ALANINE AMINOTRANSFERASE / ALBUMIN / ALKALINE PHOSPHATASE / ASPARTATE AMINOTRANSFERASE / BLOOD UREA NITROGEN / CARBON DIOXIDE / CHLORIDE / CHOLESTEROL / CREATINE PHOSPHOKINASE / CREATININE / GLUCOSE / LACTATE DEHYDROGENASE / PHOSPHORUS / POTASSIUM / SODIUM / TOTAL BILIRUBIN / TOTAL PROTEIN / URIC ACID: tissue Plasma
[1] = 25 mg/kg, 72 h, dose level Low, time 3 day
[2] = 25 mg/kg, 120 h, dose level Low, time 5 day
[3] = 160 mg/kg, 72 h, dose level High, time 3 day
[4] = 160 mg/kg, 120 h, dose level High, time 5 day

Structure (SMILES): CN[C@H](CC(C)C)C(=O)N[C@H]1C(=O)N[C@@H](CC(N)=O)C(=O)N[C@H]2C(=O)N[C@H]3C(=O)N[C@H](C(=O)N[C@H](C(=O)O)c4cc(O)cc(O)c4-c4cc3ccc4O)[C@H](O)c3ccc(c(Cl)c3)Oc3cc2cc(c3O[C@@H]2O[C@H](CO)[C@@H](O)[C@H](O)[C@H]2O[C@H]2C[C@](C)(N)[C@H](O)[C@H](C)O2)Oc2ccc(cc2Cl)[C@H]1O [VANCOMYCIN]
- ABSOLUTE BASOPHIL [1]: 0 CELLS/uL
- ABSOLUTE EOSINOPHIL [1]: 39.33 CELLS/uL
- ABSOLUTE LYMPHOCYTE [1]: 11516.33 CELLS/uL
- ABSOLUTE MONOCYTE [1]: 255.67 CELLS/uL
- ABSOLUTE SEGMENTED NEUTROPHIL [1]: 1222 CELLS/uL
- BASOPHIL [1]: 0%
- EOSINOPHIL [1]: 0.33%
- ERYTHROCYTE COUNT [1]: 5.26 x10E6/uL
- HEMATOCRIT [1]: 34.27%
- HEMOGLOBIN [1]: 13.57 G/DL
- LEUKOCYTE COUNT [1]: 13.03 x10E3/uL
- LYMPHOCYTE [1]: 88.33%
- MEAN CORPUSCULAR HEMOGLOBIN [1]: 25.87 pg
- MEAN CORPUSCULAR HEMOGLOBIN CONCENTRATION [1]: 39.63 G/DL
- MEAN CORPUSCULAR VOLUME [1]: 65.13 fL
- MONOCYTE [1]: 2%
- NUCLEATED RED BLOOD CELLS [1]: 0 /100WBC
- PLATELET COUNT [1]: 1239 x10E3/uL
- ALANINE AMINOTRANSFERASE [1]: 49 u/L
- ALBUMIN [1]: 4.13 G/DL
- ALKALINE PHOSPHATASE [1]: 403 u/L
- ASPARTATE AMINOTRANSFERASE [1]: 88 u/L
- BLOOD UREA NITROGEN [1]: 17.67 mg/dL
- CARBON DIOXIDE [1]: 28 mmol/L
- CHLORIDE [1]: 100.67 MEQ/L
- CHOLESTEROL [1]: 67.33 mg/dL
- CREATINE PHOSPHOKINASE [1]: 365.67 u/L
- CREATININE [1]: 0.22 mg/dL
- GLUCOSE [1]: 144 mg/dL
- LACTATE DEHYDROGENASE [1]: 331.67 u/L
- PHOSPHORUS [1]: 12.13 mg/dL
- POTASSIUM [1]: 6.95 MEQ/L
- SODIUM [1]: 142.77 MEQ/L
- TOTAL BILIRUBIN [1]: 0.23 mg/dL
- TOTAL PROTEIN [1]: 5.77 G/DL
- URIC ACID [1]: 1.33 mg/dL
- ABSOLUTE BASOPHIL [2]: 0 CELLS/uL
- ABSOLUTE EOSINOPHIL [2]: 41.33 CELLS/uL
- ABSOLUTE LYMPHOCYTE [2]: 15492.33 CELLS/uL
- ABSOLUTE MONOCYTE [2]: 306.33 CELLS/uL
- ABSOLUTE SEGMENTED NEUTROPHIL [2]: 660 CELLS/uL
- BASOPHIL [2]: 0%
- EOSINOPHIL [2]: 0.33%
- ERYTHROCYTE COUNT [2]: 5.54 x10E6/uL
- HEMATOCRIT [2]: 34.03%
- HEMOGLOBIN [2]: 13.7 G/DL
- LEUKOCYTE COUNT [2]: 16.5 x10E3/uL
- LYMPHOCYTE [2]: 94%
- MEAN CORPUSCULAR HEMOGLOBIN [2]: 24.73 pg
- MEAN CORPUSCULAR HEMOGLOBIN CONCENTRATION [2]: 40.23 G/DL
- MEAN CORPUSCULAR VOLUME [2]: 61.4 fL
- MONOCYTE [2]: 1.67%
- NUCLEATED RED BLOOD CELLS [2]: 0.33 /100WBC
- PLATELET COUNT [2]: 1313.33 x10E3/uL
- ALANINE AMINOTRANSFERASE [2]: 58.33 u/L
- ALBUMIN [2]: 4.03 G/DL
- ALKALINE PHOSPHATASE [2]: 397.67 u/L
- ASPARTATE AMINOTRANSFERASE [2]: 92.67 u/L
- BLOOD UREA NITROGEN [2]: 17.67 mg/dL
- CARBON DIOXIDE [2]: 31.33 mmol/L
- CHLORIDE [2]: 100 MEQ/L
- CHOLESTEROL [2]: 76.33 mg/dL
- CREATINE PHOSPHOKINASE [2]: 598 u/L
- CREATININE [2]: 0.26 mg/dL
- GLUCOSE [2]: 165.33 mg/dL
- LACTATE DEHYDROGENASE [2]: 117 u/L
- PHOSPHORUS [2]: 11.5 mg/dL
- POTASSIUM [2]: 6.64 MEQ/L
- SODIUM [2]: 144.23 MEQ/L
- TOTAL BILIRUBIN [2]: 0.17 mg/dL
- TOTAL PROTEIN [2]: 5.87 G/DL
- URIC ACID [2]: 1.3 mg/dL
- ABSOLUTE BASOPHIL [3]: 0 CELLS/uL
- ABSOLUTE EOSINOPHIL [3]: 0 CELLS/uL
- ABSOLUTE LYMPHOCYTE [3]: 10993 CELLS/uL
- ABSOLUTE MONOCYTE [3]: 34 CELLS/uL
- ABSOLUTE SEGMENTED NEUTROPHIL [3]: 1339.67 CELLS/uL
- BASOPHIL [3]: 0%
- EOSINOPHIL [3]: 0%
- ERYTHROCYTE COUNT [3]: 5.96 x10E6/uL
- HEMATOCRIT [3]: 37.17%
- HEMOGLOBIN [3]: 14.47 G/DL
- LEUKOCYTE COUNT [3]: 12.37 x10E3/uL
- LYMPHOCYTE [3]: 88.67%
- MEAN CORPUSCULAR HEMOGLOBIN [3]: 24.27 pg
- MEAN CORPUSCULAR HEMOGLOBIN CONCENTRATION [3]: 38.97 G/DL
- MEAN CORPUSCULAR VOLUME [3]: 62.4 fL
- MONOCYTE [3]: 0.33%
- NUCLEATED RED BLOOD CELLS [3]: 0 /100WBC
- PLATELET COUNT [3]: 1496.67 x10E3/uL
- ALANINE AMINOTRANSFERASE [3]: 47.33 u/L
- ALBUMIN [3]: 4.57 G/DL
- ALKALINE PHOSPHATASE [3]: 338 u/L
- ASPARTATE AMINOTRANSFERASE [3]: 86.67 u/L
- BLOOD UREA NITROGEN [3]: 22 mg/dL
- CARBON DIOXIDE [3]: 32 mmol/L
- CHLORIDE [3]: 99 MEQ/L
- CHOLESTEROL [3]: 76 mg/dL
- CREATINE PHOSPHOKINASE [3]: 389.67 u/L
- CREATININE [3]: 0.21 mg/dL
- GLUCOSE [3]: 156.33 mg/dL
- LACTATE DEHYDROGENASE [3]: 197.67 u/L
- PHOSPHORUS [3]: 12.37 mg/dL
- POTASSIUM [3]: 6.51 MEQ/L
- SODIUM [3]: 142.77 MEQ/L
- TOTAL BILIRUBIN [3]: 0.17 mg/dL
- TOTAL PROTEIN [3]: 6.4 G/DL
- URIC ACID [3]: 2.33 mg/dL
- ABSOLUTE BASOPHIL [4]: 0 CELLS/uL
- ABSOLUTE EOSINOPHIL [4]: 126 CELLS/uL
- ABSOLUTE LYMPHOCYTE [4]: 16262 CELLS/uL
- ABSOLUTE MONOCYTE [4]: 538.67 CELLS/uL
- ABSOLUTE SEGMENTED NEUTROPHIL [4]: 2873.33 CELLS/uL
- BASOPHIL [4]: 0%
- EOSINOPHIL [4]: 0.67%
- ERYTHROCYTE COUNT [4]: 5.73 x10E6/uL
- HEMATOCRIT [4]: 35.13%
- HEMOGLOBIN [4]: 14.03 G/DL
- LEUKOCYTE COUNT [4]: 19.8 x10E3/uL
- LYMPHOCYTE [4]: 82.33%
- MEAN CORPUSCULAR HEMOGLOBIN [4]: 24.47 pg
- MEAN CORPUSCULAR HEMOGLOBIN CONCENTRATION [4]: 40 G/DL
- MEAN CORPUSCULAR VOLUME [4]: 61.27 fL
- MONOCYTE [4]: 2.67%
- NUCLEATED RED BLOOD CELLS [4]: 0 /100WBC
- PLATELET COUNT [4]: 1243.33 x10E3/uL
- ALANINE AMINOTRANSFERASE [4]: 47.33 u/L
- ALBUMIN [4]: 3.73 G/DL
- ALKALINE PHOSPHATASE [4]: 287.33 u/L
- ASPARTATE AMINOTRANSFERASE [4]: 77.33 u/L
- BLOOD UREA NITROGEN [4]: 29.67 mg/dL
- CARBON DIOXIDE [4]: 27.67 mmol/L
- CHLORIDE [4]: 99.33 MEQ/L
- CHOLESTEROL [4]: 72.33 mg/dL
- CREATINE PHOSPHOKINASE [4]: 467.33 u/L
- CREATININE [4]: 0.34 mg/dL
- GLUCOSE [4]: 139 mg/dL
- LACTATE DEHYDROGENASE [4]: 171.67 u/L
- PHOSPHORUS [4]: 10.27 mg/dL
- POTASSIUM [4]: 6.39 MEQ/L
- SODIUM [4]: 143.07 MEQ/L
- TOTAL BILIRUBIN [4]: 0.13 mg/dL
- TOTAL PROTEIN [4]: 6.03 G/DL
- URIC ACID [4]: 1.4 mg/dL
